The text below walks through data of patent publication US20160271263A1 (Novo Nordisk A/S, priority 2010, published 2016).

One may read the EC50 as the midpoint of the concentration-response curve. A higher EC50 goes with lower potency in that assay.

The target in one data set is glucagon receptor (Homo sapiens, UniProt P47871). Kind of data set: cell-based.
Data set [1] is described as follows: ThT fibrillation assay for physical stability (lag time and recovery). As to conditions: Table 2. In kind it is physicochemical. The source says: This has traditionally been measured by visual inspection of the sample. However, that kind of measurement is very subjective and depending on the observer. Therefore, the application of a small molecule indicator probe is much more advantageous. […] Enzymol.
Here, F is the ThT fluorescence at the time t. […] The two important parameters describing fibril formation are the lag-time calculated by t0−2τ and the apparent rate constant kapp 1/τ.
Few of those intermediates nucleate to form a template onto which further intermediates may assembly and the fibrillation proceeds. The lag-time corresponds to the interval in which the critical mass of nucleus is built up and the apparent rate constant is the rate with which the fibril itself is formed.
Samples were prepared freshly before each assay. […] The pH of the sample was adjusted to the desired value using appropriate amounts of concentrated NaOH and HCl. Thioflavin T was added to the samples from a stock solution in H2O to a final concentration of 1 μM.
The plate was sealed with Scotch Pad (Qiagen).
Each run was initiated by incubating the plate at the assay temperature for 10 min. The plate was measured every 20 minutes for a desired period of time. Between each measurement, the plate was shaken and heated as described.
The supernatant was filtered through a 0.22 μm filter and an aliquot was transferred to a HPLC vial. […]

Sequence of glucagon receptor (P47871 26-477): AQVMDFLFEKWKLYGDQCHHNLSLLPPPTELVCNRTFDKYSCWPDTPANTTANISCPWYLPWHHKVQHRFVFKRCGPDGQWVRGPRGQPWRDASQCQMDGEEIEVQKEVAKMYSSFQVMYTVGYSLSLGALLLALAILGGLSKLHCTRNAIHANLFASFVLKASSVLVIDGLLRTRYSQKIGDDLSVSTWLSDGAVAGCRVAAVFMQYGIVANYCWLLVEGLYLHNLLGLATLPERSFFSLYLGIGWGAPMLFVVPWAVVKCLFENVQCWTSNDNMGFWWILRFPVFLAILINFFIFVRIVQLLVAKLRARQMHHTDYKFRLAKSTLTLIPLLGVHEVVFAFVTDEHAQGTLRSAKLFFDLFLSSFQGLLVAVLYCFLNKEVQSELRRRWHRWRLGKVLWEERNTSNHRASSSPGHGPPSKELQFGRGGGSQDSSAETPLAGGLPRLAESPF

As for `CC(C)C[C@H](NC(=O)[C@H](Cc1ccc(O)cc1)NC(=O)[C@H](CCCCN)NC(=O)[C@H](CO)NC(=O)[C@H](Cc1ccc(O)cc1)NC(=O)[C@H](CC(=O)O)NC(=O)[C@H](CO)NC(=O)[C@@H](NC(=O)[C@H](Cc1ccccc1)NC(=O)[C@@H](NC(=O)CNC(=O)[C@H](CCC(N)=O)NC(=O)[C@H](CO)NC(=O)[C@@H](N)Cc1c[nH]cn1)[C@@H](C)O)[C@@H](C)O)C(=O)N[C@@H](CC(=O)O)C(=O)N[C@@H](CO)C(=O)N[C@@H](CCCNC(=N)N)C(=O)N[C@@H](CCCNC(=N)N)C(=O)N[C@@H](C)C(=O)N[C@@H](CCC(N)=O)C(=O)N[C@@H](CC(=O)O)C(=O)N[C@@H](Cc1ccccc1)C(=O)N[C@H](C(=O)N[C@@H](CCCCNC(=O)CC[C@H](NC(=O)CC[C@H](NC(=O)CC[C@H](NC(=O)CCCCCCCCCCCCCCCCC(=O)O)C(=O)O)C(=O)O)C(=O)O)C(=O)N[C@@H](Cc1c[nH]c2ccccc12)C(=O)N[C@@H](CC(C)C)C(=O)N[C@@H](CC(C)C)C(=O)N[C@@H](CO)C(=O)N[C@H](C(=O)O)[C@@H](C)O)C(C)C` [Example 71, N^ε24-[(4S)-4-carboxy-4-[[(4S)-4-carboxy-4-[[(4S)-4-carboxy-4-(17-carboxyheptadecanoylamino)butanoyl]amino]butanoyl]amino]butanoyl]-[Lys^24,Leu^27,Ser^28]-Glucagon], a half-maximal response at glucagon receptor (EC50) required 94 pM. In addition, the “Th T assay [Lag time]” value in data set [1] was 45 h.
